# Values of other authors, collected in US5756528A, “Inhibitors of farnesyl-protein transferase” (Merck & Co., Inc., priority 1996, dated 1998).
# Test system: farnesyl-protein transferase
# Conditions: via HMG-CoA reductase inhibition, background literature
row,Compound,Indirect inhibition of farnesyl-protein transferase in vivo
1,CC[C@H](C)C(=O)O[C@H]1CCC=C2C=C[C@H](C)[C@H](CC[C@@H]3C[C@@H](O)CC(=O)O3)[C@H]21 [compactin],Indirect inhibition of farnesyl-protein transferase in vivo has been demonstrated
2,CC[C@H](C)C(=O)O[C@H]1C[C@@H](C)C=C2C=C[C@H](C)[C@H](CC[C@@H]3C[C@@H](O)CC(=O)O3)[C@H]21 [lovastatin],Indirect inhibition of farnesyl-protein transferase in vivo has been demonstrated
